Experimental data as given in US11000454B2, “Dental composition” (DENTSPLY SIRONA inc., priority 2016, dated 2021).

Key:
[1] = Solubility of the compounds in tested solvents; type: physicochemical; set-up: key to solubility: “−” means NO solubility; “++” means VERY GOOD solubility
[2] = Refractive index (RI) measured at 20° C.; type: physicochemical
Protocol: (§1) (nD^20) and viscosity n measured at 23° C. (η23° C.) for compounds of formula (I) according to the invention denoted as (Ib) and (Ic), and comparative compounds (C1), (C2) and (C3). Compound (Ib) is N,N′-bisacryloyl-N,N′-bisallyl-[…], and compound (Ic) is N,N′-bisacryloyl-N,N′-bispropyl-1,4-but-2-endiamine. Comparative compound (C1) is N,N′-bisacetyl-N,N′-bisallyl-1,4-but-2-endiamine, (C2) is N,N′-bisacryloyl-N,N′-bisallyl-1,4-butandiamine, and C(3) is N,N′-bisacryloyl-N,N′-bispropyl-1,4-butandiamine. In FIG. 1, RI is depicted by dark grey bars, and the viscosity η by light grey hatched bars. For comparative compound (C1), no viscosity η was determined (indicated by “*”), since this compound is a solid.

[3] = Viscosity measured at 23° C.; type: physicochemical; details: viscosity at 23° C.
Protocol: as §1

[4] = Discoloration of the dental composition upon storage; type: physicochemical; details: storage at 50° C. for 30 days
Source text: Discoloration upon storage and/or during photocuring may be determined according to ISO 7491:2000(en).

[5] = refractive index, preparative examples
[6] = refractive index at 20° C., tables

SMILES: C=CCN(C/C=C/CN(CC=C)C(C)=O)C(C)=O [(C1), N,N′-Bisacetyl-N,N′-bisallyl-1,4-but-2-endiamine]
- melting point: 32 °C
- solubility ([1]; EtOH): ++
- solubility ([1]; acetone): ++
- solubility ([1]; iPrOH): ++
- solubility ([1]; methacrylic acid): ++
- solubility ([1]; water): −
- nD^20 [2, 5]: 1.505

SMILES: C=CCN(CCCCN(CC=C)C(=O)C=C)C(=O)C=C [(C2), N,N′-Bisacryloyl-N,N′-bisallyl-1,4-butandiamine]
- η23° C. ([3]; tables): 382.0 mPa · s
- solubility ([1]; EtOH): −
- solubility ([1]; acetone): ++
- solubility in alcohols ([1]; alcohols like ethanol or isopropanol): not soluble
- solubility ([1]; iPrOH): −
- solubility ([1]; methacrylic acid): ++
- solubility ([1]; water): −
- solubility ([1]; water/alcohol): −
- nD^20 [2, 6]: 1.5150
- nD^20 [2, 5]: 1.515

SMILES: C=CC(=O)N(CCC)CCCCN(CCC)C(=O)C=C [(C3), N,N′-Bisacryloyl-N,N′-bispropyl-1,4-butandiamine]
- η23° C. ([3]; preparative examples): 486±1 Pa*s
- η23° C. ([3]; tables): 485.5 mPa · s
- solubility ([1]; EtOH): ++
- solubility ([1]; acetone): ++
- solubility ([1]; iPrOH): ++
- solubility ([1]; methacrylic acid): ++
- solubility ([1]; water): −
- nD^20 [2, 6]: 1.5150
- nD^20 [2, 5]: 1.515

SMILES: C=CCN(C/C=C/CN(CC=C)C(=O)C=C)C(=O)C=C [(Ia)]
- η23° C. ([3]; tables): 338.0 mPa · s
- solubility ([1]; EtOH): ++
- solubility ([1]; acetone): ++***)
- solubility ([1]; iPrOH): ++
- solubility ([1]; methacrylic acid): ++
- solubility ([1]; water): −**^)
- nD^20 [2, 6]: 1.5290

SMILES: C=CC(=O)N(C/C=C/CN(CCC)C(=O)C=C)CCC [(Ic), N,N′-Bisacryloyl-N,N′-bispropyl-1,4-but-2-endiamine]
- η23° C. ([3]; preparative examples): 428±3 Pa*s
- η23° C. ([3]; tables): 427.5 mPa · s
- solubility ([1]; EtOH): ++
- solubility ([1]; acetone): ++
- solubility ([1]; iPrOH): ++
- solubility ([1]; methacrylic acid): ++
- solubility ([1]; water): −
- nD^20 [2, 6]: 1.5095
- nD^20 [2, 5]: 1.5095

SMILES: C=CCN(C/C=C/C(C)N(CC=C)C(=O)C=C)C(=O)C=C (stereo not drawn) [Compound (Ib)]
- η23° C. ([3]; tables): 409.0 mPa · s
- solubility ([1]; EtOH): ++
- solubility ([1]; acetone): ++
- solubility ([1]; iPrOH): ++
- solubility ([1]; methacrylic acid): ++
- solubility ([1]; water): −
- nD^20 [2, 6]: 1.5260
- nD^20 [2, 5]: 1.526

SMILES: CC(C)(C)c1cc(O)c(C(C)(C)C)cc1O [DTBHQ]
- discoloration of the dental composition upon storage [4]: no or almost no discoloration
